US4057530A, “2-Phenyl-indole derivatives and process for preparing the same” (priority 1974, dated 1977)

Legend:
[1] = Static thermostability of stabilized resin, simplified method (GARDNER sub-scale), Compound A; settings: 210° C; for Colouration given to the polymer: 0 and 3 min
Procedure: (§1) The stabilizing power of the substances of the invention was studied from two points of view:
(§2) These studies were performed with six different formulae of vinyl resins (hereinafter referred to as Compounds).
(§3) The different compounds were mixed and calendered in a mixer of which the cylinders were heated to 160° C. The rigid sheets so obtained were then heated in an oven to a temperature between 180° C and 215° C, until incipient carbonization.
(§4) A stove with rotating drums, ventilated and equipped with a thermostat was used for this operation. In the trials described hereunder, the behaviour of a sheet containing the stabilizer to be tested was compared to that of a sheet of the same formula but containing 2-phenyl-indole as stabilizer.
2. It is also possible to use a simplified method which is more rapid and with which valid results are also obtained: a reference scale is drawn up with sheets of thermally treated polyvinyl chloride, of which the colourations have been definitely determined in GARDNER degrees as above. A GARDNER sub-scale is thus obtained in polyvinyl chloride sheets which can be directly compared to the sheets to be tested without using the comparator.
Finally, trials were carried out with Stabilizers 15, 16 and 17 and with 2-phenyl-indole. Compound A was used and the temperature was 210° C.

mice = assay: Acute toxicity by oral route in mice (LD50); type: in vivo; settings: LD50 study
Procedure: (§5) The study of the acute toxicity of the stabilizers listed below was carried out by determining the dose of substance which provoked the death of 50% of the treated animals (LD50). A gummy suspension of the substance under study was administered by oral route to groups of at least ten mice and the following results were observed: […]

[2] = Acute toxicity by oral route in mice (LD50); type: in vivo; settings: mouse, in vivo, gummy suspension
Procedure: as §5

[3] = Static thermostability of stabilized resin, GARDNER Scale Comparator, Compound A; settings: 185° C
Procedure: as §1, §2, §3, §4
1. The colouration of the sheets, of which samples were removed from the stove at fixed intervals was compared to a standard scale of colouration, known as the GARDNER Scale, and expressed in terms of the reference figures of the GARDNER Scale.
Comparisons were made with a GARDNER Scale Comparator which contains 18 filters of coloured glass and which offers the possibility of observing by transparency and in a limited field of view both the sheet and the reference filters.

SMILES | Static thermostability compared with 2-phenyl-indole [1] | Colouration of sheet (GARDNER sub-scale) ([1]; 0 min) [GARDNER degrees] | Colouration of sheet (GARDNER sub-scale) ([1]; 3 min) [GARDNER degrees] | Colouration of sheet (GARDNER sub-scale) ([1]; 6 min) [GARDNER degrees] | Colouration of sheet (GARDNER sub-scale) ([1]; 9 min) [GARDNER degrees] | Colouration of sheet (GARDNER sub-scale) ([1]; 12 min) [GARDNER degrees] | Colouration of sheet (GARDNER sub-scale) ([1]; 15 min) | Colouration of sheet (GARDNER sub-scale) ([1]; 18 min) | Toxic symptoms (mice) | LD50 [2] [mg/kg] | further results
c1ccc(-c2ccc(-c3cc4ccccc4[nH]3)cc2)cc1 [Stabilizer 26, 2(4'-phenyl-phenyl)-indole] | markedly superior to 2-phenyl-indole | 2 | 2 | 3 | 4 | 5 | 12 GARDNER degrees | 14 GARDNER degrees |  |  | 
CCOC(=O)C(C)(C)Oc1ccc(-c2cc3ccccc3[nH]2)cc1 [Stabilizer 5, 2-(4'-carbethoxyisopropyloxy-phenyl)-indole] | markedly superior to 2-phenyl-indole |  |  |  |  |  |  |  | none | > 3000 | 
Sc1ccc(-c2cc3ccccc3[nH]2)cc1 [Stabilizer 1, 2-(4'-mercapto-phenyl)-indole] | superiority of Stabilizer 1 over 2-phenyl-indole | 1 | 2 | 2.5 | 7 | 11 | 12 GARDNER degrees |  | none | > 2000 | 
CC(=O)Nc1ccc(-c2cc3ccccc3[nH]2)cc1 [Stabilizer 14, 2-(4'-N-acetylamino-phenyl)-indole] | slightly superior to 2-phenyl-indole | 2 | 2 | 3 | 4 | 8 | 12 GARDNER degrees | burnt |  |  | 
Nc1ccc(-c2cc3ccccc3[nH]2)cc1 [Stabilizer 22, 2-(4'-amino-phenyl)-indole] | developed less rapidly than that due to 2-phenyl-indole | 2 | 3 | 3 | 4 | 6 | 12 GARDNER degrees | burnt |  |  | Colouration given to the polymer [1]: relatively strong yellow colouration
O=C(Oc1ccc(-c2cc3ccccc3[nH]2)cc1)c1ccccc1 [Stabilizer 6, 2-(4'-benzoyloxy-phenyl)-indole] |  |  |  |  |  |  |  |  | none | > 4000 | 
CSc1ccc(-c2cc3ccccc3[nH]2)cc1 [Stabilizer 3, 2-(4'-methylthio-phenyl)-indole] | markedly superior to 2-phenyl-indole | 1 | 1 | 2 | 3 | 8 | 10 GARDNER degrees |  | none | > 3000 | 
CC(C)Sc1ccc(-c2cc3ccccc3[nH]2)cc1 [Stabilizer 17, 2-(4'-isopropylthio-phenyl)-indole] | very rapidly found to be superior to 2-phenyl-indole | 1 | 1 | 2 | 4 | 10 | 13 GARDNER degrees | burnt |  |  | Colouration of sheet (GARDNER Scale) ([3]; 0 min): 1 GARDNER degrees; Colouration of sheet (GARDNER Scale) ([3]; 6 min): 1 GARDNER degrees; Colouration of sheet (GARDNER Scale) ([3]; 12 min): 2 GARDNER degrees; Colouration of sheet (GARDNER Scale) ([3]; 18 min): 4 GARDNER degrees; Colouration of sheet (GARDNER Scale) ([3]; 24 min): 9 GARDNER degrees; Colouration of sheet (GARDNER Scale) ([3]; 30 min): 11 GARDNER degrees; Colouration of sheet (GARDNER Scale) ([3]; 36 min): 12 GARDNER degrees; Colouration of sheet (GARDNER Scale) ([3]; 42 min): 13 GARDNER degrees; Colouration of sheet (GARDNER Scale) ([3]; 48 min): 14 GARDNER degrees; Colouration of sheet (GARDNER Scale) ([3]; 54 min): burnt
O=C(Nc1ccccc1-c1cc2ccccc2[nH]1)c1ccccc1 [Stabilizer 25, 2-(2'-N-benzoylamino-phenyl)-indole] | slightly superior to 2-phenyl-indole | 2 | 2 | 4 | 6 | 9 | 12 GARDNER degrees | burnt |  |  | 
Nc1cccc(-c2cc3ccccc3[nH]2)c1 [Stabilizer 11, 2-(3'-amino-phenyl)-indole] | developed less rapidly than that due to 2-phenyl-indole | 3 | 3 | 4 | 5 | 10 | 12 GARDNER degrees | burnt |  |  | Colouration given to the polymer [1]: relatively intense yellow colouration
CCOC(=O)COc1ccc(-c2cc3ccccc3[nH]2)cc1 [Stabilizer 13, 2-(4'-carbethoxymethoxy-phenyl)-indole] | markedly superior to 2-phenyl-indole | 2 | 2 | 3 | 3 | 9 | 11 GARDNER degrees | burnt |  |  | 
O=C(O)COc1ccc(-c2cc3ccccc3[nH]2)cc1 [Stabilizer 12, 2-(4'-carboxymethoxy-phenyl)-indole] | developed less rapidly than those due to 2-phenyl-indole | 2 | 2 | 3 |  |  | brown | burnt |  |  | 
CC(=O)Oc1ccc(-c2cc3ccccc3[nH]2)cc1 [Stabilizer 4, 2-(4'-acetoxy-phenyl)-indole] |  |  |  |  |  |  |  |  | none | > 3000 | 
